According to US9914712B2, “Antibacterial thiazolecarboxylic acids” (priority 2013, dated 2018):

Experiments:
[1] = molecular target: T1, NDM-1 (Klebsiella pneumoniae, UniProt C7C422); test: In vitro MBL inhibition assay, imipenem hydrolysis (NDM-1); type: biochemical; conditions: Ki NDM-1, imipenem substrate, Ki from IC50 by Cheng-Prusoff, Km 70 μM
T1 construct: made in house
Protocol: NDM-1 is produced and purified as disclosed in Yong et al, Antimicrobial Agents & Chemotherapy, (2009) 53(12), 5046-54.
(§1) Reaction buffers were prepared in a UV-transparent 96-well microplate, which buffer contains 10 mM HEPES pH 7.5, 50 μM ZnSO4, 20 μg/mL BSA. An amount of 75 ng of protein was added to each well.
(§2) Spectrophometric assays are performed to determine NDM-1/VIM-2/IMP-1 carbapenemase activity using purified proteins (50 ng for NDM-1/VIM-2, 25 ng IMP-1) from NDM-1/VIM-2/IMP-1 expressing bacteria using […] of imipenem as substrate in 10 mM HEPES pH 7.5, 50 μM ZnSO4. MBL hydrolysis is measured at 299 nm for 10 minutes at 30° C. as the absorbance changes due to the opening of beta-lactam ring of the antibiotic.
(§3) The Ki values obtained for selected example compounds are shown in Table 3, where they are compared with the values for pyridine-2-carboxylic acid.

[2] = molecular target: T2, VIM-2 (Escherichia coli, UniProt Q5U7L7); test: In vitro MBL inhibition assay, imipenem hydrolysis (VIM-2); type: biochemical; conditions: Ki VIM-2, imipenem substrate, Ki from IC50 by Cheng-Prusoff, Km 9 μM
T2 construct: made in house
Protocol: The MBL enzyme VIM-2 is produced and purified as disclosed in Borgianni et al, Antimicrobial Agents & Chemotherapy, (2010), 54(8), 3197-3204.
as §1, §2, §3

[3] = molecular target: T3, IMP-1 (Serratia marcescens, UniProt P52699); test: In vitro MBL inhibition assay, imipenem hydrolysis (IMP-1); type: biochemical; conditions: Ki IMP-1, imipenem substrate, Ki from IC50 by Cheng-Prusoff, Km 25 μM
T3 construct: made in house
Protocol: The MBL enzyme IMP-1 is produced and purified as disclosed in Laraki et al, Antimicrobial Agents & Chemotherapy, (1999), 43(4), 902-906.
as §1, §2, §3

[4] = tested on: NTBC020 Strain: Escherichia coli producing NDM-1+TEM-1+CTX-M-15; test: MIC of meropenem in presence of the inhibitor, broth microdilution; type: cell-based; conditions: compound at 100 μM, 37° C., 18-20 h
Protocol: (§4) The minimal inhibitory concentration (MIC) of meropenem in presence of the inhibitor is routinely assessed against 3 representative clinical strains: • NTBC020 Strain: Escherichia coli producing NDM-1+TEM-1+CTX-M-15, (isolated in Australia in 2009); • NTBC023 strain: Klebsiella pneumoniae producing VIM-1+SHV-5, (isolated in France in 2002); • NTBC062 strain: Klebsiella pneumoniae producing IMP-1+TEM-1, (isolated in France in 2012);
(§5) The assay was performed according to the standard broth microdilution method described by the Clinical and Laboratory Standards Institute (CLSI-M7-A7—Methods for dilution antimicrobial susceptibility tests for bacteria that grow aerobically; Approved standard; CLSI, Wayne, Pa., USA. 2006). This method involves the use of small volumes of broth dispensed in sterile, plastic 96-wells microdilution plates. The compounds were tested at a concentration of 100 μM and controls included the susceptibility tests for the three selected strains without the compounds and for the two reference strains E. coli ATCC 25922 and Pseudomonas aeruginosa ATCC 27853 as Quality Controls.
(§6) From a stock solution at 20 mM in DMSO, compounds were prepared by diluting 0.04 mL of the compound solution in 0.04 mL of Mueller-Hinton (MH) broth (2-fold dilution). Then, 0.001 mL of the compound dilution was distributed in the 96-wells microdilution plates to give a final concentration of 100 μM for a final volume of 0.1 mL by well.
(§7) From a meropenem stock solution at 10 mg/ml in water, meropenem 2-fold serial dilutions were prepared in MH broth at twice the desired final concentrations, e.g from 512 to 0.0037 μg/ml. The 96-wells microdilution plates were then filled with 0.05 mL of the meropenem dilutions. For each susceptibility test, two wells were left free of antibiotic and filled with 0.05 mL of sterile MH broth to serve as growth controls.
(§8) The bacterial inoculum was prepared by direct colony suspension from a 24 h-agar plate in saline solution (NaCl 9 g/L). The suspension was adjusted to a 0.5 MacFarland turbidity standard (1-2×10^8 CFU/mL) and then diluted 1:100 in MH broth. 0.05 mL of the bacterial dilution was then inoculated to each well giving a final volume of 0.1 mL and a final bacterial concentration of approximately 5×10^5 CFU/mL.
(§9) Microdilution plates were incubated at 37° C. in an ambient air incubator for 18-20 h.

[5] = tested on: NTBC023 strain: Klebsiella pneumoniae producing VIM-1+SHV-5; test: as above; type: cell-based; conditions: compound at 100 μM, 37° C., 18-20 h
Protocol: as §4, §5, §6, §7, §8, §9

[6] = tested on: NTBC039; test: as above; type: cell-based; conditions: compound at 100 μM, 37° C., 18-20 h

T1 sequence (C7C422 29-270 limits assumed): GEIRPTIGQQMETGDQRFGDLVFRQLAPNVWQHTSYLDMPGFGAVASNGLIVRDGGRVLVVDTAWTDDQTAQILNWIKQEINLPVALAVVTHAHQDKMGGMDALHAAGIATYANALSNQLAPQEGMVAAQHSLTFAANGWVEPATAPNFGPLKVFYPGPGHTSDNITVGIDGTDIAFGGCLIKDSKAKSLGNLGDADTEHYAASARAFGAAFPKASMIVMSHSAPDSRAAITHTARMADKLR
T3 sequence (P52699 19-246, species assumed): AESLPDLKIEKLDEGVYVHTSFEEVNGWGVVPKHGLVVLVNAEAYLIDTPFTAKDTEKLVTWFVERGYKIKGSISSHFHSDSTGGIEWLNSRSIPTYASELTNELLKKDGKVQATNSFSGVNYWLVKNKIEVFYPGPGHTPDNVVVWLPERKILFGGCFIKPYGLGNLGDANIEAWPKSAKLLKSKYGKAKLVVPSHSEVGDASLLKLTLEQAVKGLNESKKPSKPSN

| SMILES | Ki [1] [nM] | Ki [2] [nM] | Ki [3] [nM] | MIC of meropenem, strain NTBC020 [4] [µg/mL] | MIC of meropenem, strain NTBC023 [5] [µg/mL] | MIC of meropenem, strain NTBC039 [6] [µg/mL] |
| --- | --- | --- | --- | --- | --- | --- |
| O=C(O)c1ncsc1NS(=O)(=O)Cc1ccccc1 [Compound 5, 5-(phenylmethylsulfonamido)thiazole-4-carboxylic acid] | 2500 | 210 | 50 | – | – | – |
| O=C(O)c1ncsc1NS(=O)(=O)CCc1ccccc1 [Compound 7, 5-(2-phenylethylsulfonamido)thiazole-4-carboxylic acid] | 750 | 80 | 30 | – | – | – |
| O=C(O)c1ncsc1NS(=O)(=O)c1ccc(-c2ccccc2)s1 [Compound 20, 5-(5-phenylthiophene-2-sulfonamido)thiazole-4-carboxylic acid] | 940 | 480 | 100 | – | – | – |
| O=C(O)c1ncsc1NS(=O)(=O)Cc1cccc(Cl)c1Cl [Compound 48, 5-{[(2,3-dichlorophenyl)methyl]sulfonamido}-1,3-thiazole-4-carboxylic acid] | – | – | – | 4 | 2 | 0.25 |
| Cc1nc(C(=O)O)c(NS(=O)(=O)Cc2ccccc2)s1 [Compound 50, 5-benzylsulfonamido-2-methyl-1,3-thiazole-4-carboxylic acid] | 1700 | 260 | 60 | – | – | – |
| O=C(O)c1nc(-c2ccccc2)sc1NS(=O)(=O)c1ccccc1 [Compound 58, 5-benzenesulfonamido-2-phenyl-1,3-thiazole-4-carboxylic acid] | 2300 | 800 | 70 | – | – | – |
| CC(c1ccccc1)S(=O)(=O)Nc1scnc1C(=O)O (stereo not drawn) [Compound 60, 5-[(1-phenylethyl)sulfonamido]-1,3-thiazole-4-carboxylic acid] | 800 | 100 | 70 | – | – | – |
| O=C(O)c1ncsc1NS(=O)(=O)CCN1C(=O)c2ccccc2C1=O [Compound 63, 5-{[2-(1,3-dioxo-2,3-dihydro-1H-isoindol-2-yl)ethyl]sulfonamido}-1,3-thiazole-4-carboxylic acid] | 600 | 130 | 1700 | – | – | – |
| O=C(O)c1ncsc1NS(=O)(=O)c1ccccc1Cl [Compound 66, 5-[(2-chlorophenyl)sulfonamido]-1,3-thiazole-4-carboxylic acid] | – | – | – | 16 | 8 | 8 |
| O=C(O)c1ncsc1NS(=O)(=O)c1cccnc1 [Compound 67, 5-(pyridine-3-sulfonamido)-1,3-thiazole-4-carboxylic acid] | – | – | – | 1 | 16 | 8 |
| O=C(O)c1ncsc1NS(=O)(=O)CC1CCCCC1 [Compound 69, 5-(cyclohexylmethyl)sulfonamido-1,3-thiazole-4-carboxylic acid] | – | – | – | 16 | 4 | 1 |
| O=C(O)c1ncsc1NS(=O)(=O)N1CCCCC1 [Compound 75, 5-[(piperidine-1-sulfonyl)amino]-1,3-thiazole-4-carboxylic acid] | 2100 | 340 | 940 | – | – | – |
| CN(Cc1ccccc1)S(=O)(=O)Nc1scnc1C(=O)O [Compound 77, 5-{[benzyl(methyl)sulfamoyl]amino}-1,3-thiazole-4-carboxylic acid] | 1300 | 30 | 120 | – | – | – |
| CC(=O)Nc1ccc(S(=O)(=O)Nc2scnc2C(=O)O)cc1 [Compound 78, 5-[(4-acetamidophenyl)sulfonamido]-1,3-thiazole-4-carboxylic acid] | 160 | 400 | 50 | – | – | – |
| Cc1c(S(=O)(=O)Nc2scnc2C(=O)O)cnn1-c1ccccc1 [Compound 81, 5-[(5-methyl-1-phenyl-1H-pyrazol-4-yl)sulfonamido]-1,3-thiazole-4-carboxylic acid] | 130 | 30 | 410 | – | – | – |
| CN(c1ccccc1)S(=O)(=O)Nc1scnc1C(=O)O [Compound 88, 5-{[methyl(phenyl)sulfamoyl]amino}-1,3-thiazole-4-carboxylic acid] | 1000 | 160 | 580 | – | – | – |
| O=C(O)c1ncsc1NS(=O)(=O)c1ccc(-n2cccn2)cc1 [Compound 94, 5-{[4-(1H-pyrazol-1-yl)phenyl]sulfonamido}-1,3-thiazole-4-carboxylic acid] | – | – | – | 16 | 8 | 4 |
| O=C(O)c1nc(C(F)(F)F)sc1NS(=O)(=O)Cc1ccccc1Cl [Compound 96, 5-{[(2-chlorophenyl)methyl]sulfonamido}-2-(trifluoromethyl)-1,3-thiazole-4-carboxylic acid] | 2700 | 350 | 1200 | – | – | – |
| O=C(O)c1ncsc1NS(=O)(=O)CCCc1ccccc1 [Compound 101, 5-[(3-phenylpropyl)sulfonamido]-1,3-thiazole-4-carboxylic acid] | – | – | – | 32 | 8 | 1 |
| O=C(O)c1ncsc1NS(=O)(=O)C1CCc2ccccc21 (stereo not drawn) [Compound 104, 5-(2,3-dihydro-1H-indene-1-sulfonamido)-1,3-thiazole-4-carboxylic acid] | – | – | – | 16 | 4 | 2 |
| O=C(O)c1ncsc1NS(=O)(=O)c1ccc(C2CCNCC2)cc1 [Compound 118, 5-{[4-(piperidin-4-yl)phenyl]sulfonamido}-1,3-thiazole-4-carboxylic acid] | – | – | – | 4 | 8 | 4 |
| O=C(O)c1ncsc1NS(=O)(=O)Cc1cccc(F)c1F [Compound 124, 5-{[(2,3-difluorophenyl)methyl]sulfonamido}-1,3-thiazole-4-carboxylic acid] | – | – | – | 4 | 4 | 0.25 |
| O=C(O)c1ncsc1NS(=O)(=O)Cc1cc2c(cc1Cl)OCO2 [Compound 144, 5-[(6-chloro-2H-1,3-benzodioxol-5-yl)methylsulfonamido]-1,3-thiazole-4-carboxylic acid] | – | – | – | 16 | 8 | 1 |
| O=C(O)c1ncsc1NS(=O)(=O)N1CCc2ccccc21 [Compound 147, 5-[(2,3-dihydroindole-1-sulfonyl)amino]-1,3-thiazole-4-carboxylic acid] | – | – | – | 8 | 16 | 4 |
| O=C(O)c1ncsc1NS(=O)(=O)CCc1cccnc1 [Compound 151, 5-[2-(pyridin-3-yl)ethylsulfonamido]-1,3-thiazole-4-carboxylic acid] | 3200 | 100 | 1800 | – | – | – |
| O=C(O)c1ccccn1 [Pyridine-2-carboxylic acid, pyridine-2-carboxylic acid, reference compound] | 3000 | 1000 | 300000 | – | – | – |
